Values after ≈ are worked out from the molar mass of the structure shown. Read-outs that look alike come from different tables or passages of the source.
Experiments:
Assay type in all cases: physicochemical
[1] = Solubility testing in organic solvents and water (visual, room temperature)
[2] = Water activity study of the crystalline potassium salt forms (acetone/water suspension, XRPD); details: water/acetone
Method: A water activity study of the potassium salt forms was conducted in two groups: (i) Form I and Form III of the potassium salt, and (ii) Form II and Form III of the potassium salt.
Each suspension was shaken at 700 rpm in a shaker at 25° C., 35° C., 45° C., and 50° C., and the sample was analyzed by XRPD.

[3] = Solubility in simulated biological fluid (FaSSGF and FaSSIF) at 37° C., HPLC; pH of filtrate, XRPD of filter cake; details: for Concentration: 37° C.; for XRPD: filter cake; for pH (24 h): filtrate
Method: (§1) Approximately between 15 mg and 24 mg of sample was suspended in 5 mL or 8 mL of FaSSGF or FaSSIF, respectively. The resulting suspension was shaken at 700 rpm with a QQMSC-100 shaker at 37° C. The suspension was sampled and filtered at certain time intervals, which was achieved by sampling 1000 μL of each suspension which was then filtered and diluted, diluting the resulting filtrate for HPLC analysis to assess solubility. The pH of the filtrate was measured, and the filter cake was analyzed by XRPD.
as §1, with “Approximately” for “Approximately between”, “mg to” for “mg and”, “5” for “5 mL”, “suspension” for “suspension which”, “was” for “was then”
Approximately 15 mg to 24 mg of sample was suspended in 5 or 8 mL of FaSSGF or FaSSIF, respectively. The resulting suspension was shaken at 700 rpm with a QQMSC-100 shaker at 37° C. The suspension was sampled and filtered in certain time interval, which was achieved by sampling 1000 μL of each suspension was filtered and diluted, diluting the resulting filtrate for HPLC analysis to assess solubility. The pH of the filtrate was measured, and the filter cake was analyzed by XRPD.

SMILES: CNC(=O)c1ncn2cc(-c3c(F)ccc(NS(=O)(=O)c4cc(Cl)cnc4OC)c3F)ncc12 [Free acid Form I, 6-(3-((5-chloro-2-methoxypyridine)-3-sulfonamido)-2,6-difluorophenyl)-N-methylimidazo[1,5-a]pyrazine-1-carboxamide]
- Solubility ([1]; Acetone, listed as Form I of the Free Acid): ~10000 µg/mL (≈ 19700 µM)
- Solubility ([1]; DCM, listed as Form I of the Free Acid): ~8000 µg/mL (≈ 15700 µM)
- Solubility ([1]; DMSO, listed as Form I of the Free Acid): >230000 µg/mL
- Solubility ([1]; EtOAc, listed as Form I of the Free Acid): ~2000 µg/mL (≈ 3930 µM)
- Solubility ([1]; EtOH, listed as Form I of the Free Acid): ~1000 µg/mL (≈ 1970 µM)
- Solubility ([1]; H2O (water), listed as Form I of the Free Acid): <100 µg/mL
- Solubility ([1]; Heptane): <100 µg/mL
- Solubility ([1]; IPA, listed as Form I of the Free Acid): ~400 µg/mL (≈ 786 µM)
- Solubility ([1]; IPAc, listed as Form I of the Free Acid): ~800 µg/mL (≈ 1570 µM)
- Solubility ([1]; MEK, listed as Form I of the Free Acid): ~6000 µg/mL (≈ 11800 µM)
- Solubility ([1]; MTBE): <100 µg/mL
- Solubility ([1]; MeCN, listed as Form I of the Free Acid): ~5000 µg/mL (≈ 9830 µM)
- Solubility ([1]; MeOH, listed as Form I of the Free Acid): ~700 µg/mL (≈ 1380 µM)
- Solubility ([1]; NBA, 24 °C, organic solvent or mixture, thermodynamic from solid, NBA, read-out: Solubility): ~700 µg/mL (≈ 1380 µM)
- Solubility ([1]; THF, listed as Form I of the Free Acid): ~35000 µg/mL (≈ 68800 µM)
- Solubility ([1]; toluene, 24 °C, organic solvent or mixture, thermodynamic from solid, Toluene, read-out: Solubility): < 100 µg/mL

SMILES: CNC(=O)c1ncn2cc(-c3c(F)ccc([N-]S(=O)(=O)c4cc(Cl)cnc4OC)c3F)ncc12.[K+] [Forms I and III of the Potassium Salt]
- Crystalline form by XRPD ([2]; 0% water without molecular sieves, KF 0.189 wt. %, 25° C.): Form III
- Crystalline form by XRPD ([2]; 0% water without molecular sieves, KF 0.189 wt. %, 35° C.): Form III
- Crystalline form by XRPD ([2]; 0% water without molecular sieves, KF 0.189 wt. %, 45° C.): Form III
- Crystalline form by XRPD ([2]; 0% water without molecular sieves, KF 0.189 wt. %, 50° C.): Form III
- Crystalline form by XRPD ([2]; 10 V% water, KF 14.9 wt. %, 25° C.): Form III
- Crystalline form by XRPD ([2]; 10 V% water, KF 14.9 wt. %, 35° C.): Form III
- Crystalline form by XRPD ([2]; 10 V% water, KF 14.9 wt. %, 45° C.): Form III
- Crystalline form by XRPD ([2]; 10 V% water, KF 14.9 wt. %, 50° C.): Form III
- Crystalline form by XRPD ([2]; 25 V% water, KF 34.5 wt. %, 25° C.): Form III
- Crystalline form by XRPD ([2]; 25 V% water, KF 34.5 wt. %, 35° C.): Form III
- Crystalline form by XRPD ([2]; 25 V% water, KF 34.5 wt. %, 45° C.): Form III
- Crystalline form by XRPD ([2]; 25 V% water, KF 34.5 wt. %, 50° C.): Form III
- Crystalline form by XRPD ([2]; 50 V% water, KF 60.1 wt. %, 25° C.): Form III
- Crystalline form by XRPD ([2]; 50 V% water, KF 60.1 wt. %, 35° C.): Form III
- Crystalline form by XRPD ([2]; 50 V% water, KF 60.1 wt. %, 45° C.): Form III
- Crystalline form by XRPD ([2]; 50 V% water, KF 60.1 wt. %, 50° C.): Form III
- Crystalline form by XRPD ([2]; 75 V% water, KF 90.5 wt. %, 25° C.): Form III
- Crystalline form by XRPD ([2]; 75 V% water, KF 90.5 wt. %, 35° C.): Form III
- Crystalline form by XRPD ([2]; 75 V% water, KF 90.5 wt. %, 45° C.): Form III
- Crystalline form by XRPD ([2]; 75 V% water, KF 90.5 wt. %, 50° C.): Form III

SMILES: CNC(=O)c1ncn2cc(-c3c(F)ccc([N-]S(=O)(=O)c4cc(Cl)cnc4OC)c3F)ncc12.[Na+] [Na salt Form III]
- pH (0 h) ([3]; FaSSGF): 1.60
- Concentration ([3]; FaSSGF, 0.5 h): 45900 ng/mL
- Concentration ([3]; FaSSGF, 2.0 h): 4400 ng/mL
- Concentration ([3]; FaSSGF, 24 h): 4100 ng/mL
- XRPD ([3]; FaSSGF): Changed
- pH (24 h) ([3]; FaSSGF): 1.68
- pH (0 h) ([3]; FaSSIF): 6.50
- Concentration ([3]; FaSSIF, 0.25 h): 176000 ng/mL
- Concentration ([3]; FaSSIF, 0.5 h): 175000 ng/mL
- Concentration ([3]; FaSSIF, 0.75 h): 169000 ng/mL
- Concentration ([3]; FaSSIF, 1.0 h): 170000 ng/mL
- Concentration ([3]; FaSSIF, 2.0 h): 13200 ng/mL
- Concentration ([3]; FaSSIF, 24 h): 9900 ng/mL
- XRPD ([3]; FaSSIF): Changed
- pH (24 h) ([3]; FaSSIF): 6.86

SMILES: CNC(=O)c1ncn2cc(-c3c(F)ccc([N-]S(=O)(=O)c4cc(Cl)cnc4OC)c3F)ncc12.[K+] [Forms II and III of the Potassium Salt]
- Crystalline form by XRPD ([2]; 0% water without molecular sieves, KF 0.189 wt. %, 50° C., 20 h): Form I^20 h

From US20260224563A1, “CRYSTALLINE FORMS OF 6-(3-((5-CHLORO-2-METHOXYPYRIDINE)-3-SULFONAMIDO)-2,6-DIFLUOROPHENYL)-N-METHYLIMIDAZO[1,5-A]PYRAZINE-1-CARBOXAMIDE AND METHODS FOR USING THE SAME” (HIBERCELL, INC., priority 2023, published 2026)
